According to patent US20260355196A1, “INHIBITORS AND DEGRADERS OF PIP4K PROTEIN” (Larkspur Biosciences, Inc., priority 2023, published 2026):

Molecular target: T1, PIP4K2C (Homo sapiens, UniProt Q8TBX8)
T1 sequence (Q8TBX8 1-421): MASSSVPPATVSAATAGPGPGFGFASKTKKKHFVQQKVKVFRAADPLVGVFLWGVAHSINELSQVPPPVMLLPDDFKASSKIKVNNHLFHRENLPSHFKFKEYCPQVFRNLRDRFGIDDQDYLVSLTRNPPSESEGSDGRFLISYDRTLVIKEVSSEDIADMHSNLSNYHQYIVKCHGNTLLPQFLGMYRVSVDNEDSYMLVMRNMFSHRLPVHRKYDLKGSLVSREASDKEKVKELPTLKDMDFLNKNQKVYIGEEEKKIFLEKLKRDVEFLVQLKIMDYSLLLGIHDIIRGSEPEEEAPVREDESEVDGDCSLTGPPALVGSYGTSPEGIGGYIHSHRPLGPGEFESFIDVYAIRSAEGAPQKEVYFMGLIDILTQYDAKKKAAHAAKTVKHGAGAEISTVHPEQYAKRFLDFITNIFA
Test: HiBiT PIP4K2C degradation assay in MOLT-4 cells (endogenous PIP4K2C C-terminally tagged with HiBiT)
Format: cell-based
Parameters: untagged in primary human PBMCs and monocyte-derived dendritic cells
Details: 6 hours of incubation time, rather than 24 hours; MOLT-4, top concentration 10 micromolar; read-out: HiBIT-degradation MOLT4 PIP4k2C DC50 (6 hours, marked *)
Summary of the method: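 Endogenous PIP4K2C was C-terminally HiBiT-tagged by CRISPR-Cas9 in MOLT-4 cells, which were treated with a 10-point, 3-fold dilution series from 10 micromolar in duplicate for 24 or 6 hours at 37 C. Remaining protein was read by HiBiT lytic luminescence, and DC50 came from a Hill fit.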

Row | DC50 [nM] | SMILES
1 | < 500 | O=C1CC[C@H](Nc2ccc(C3CCN(CC4(O)CCN(C(=O)[C@H]5CC[C@H](Nc6ncc(F)c(-c7cccc(N8CCCCC8)c7)n6)CC5)CC4)CC3)c(F)c2)C(=O)N1 [Compound 514, trans-3-((3-fluoro-4-(1-((1-(4-((5-fluoro-4-(3-(piperidin-1-yl)phenyl)pyrimidin-2-yl)amino)cyclohexane-1-carbonyl)-4-hydroxypiperidin-4-yl)methyl)piperidin-4-yl)phenyl)amino)piperidine-2,6-dione]
2 | < 500 | O=C1CCC(Nc2ccc(C3CCN(CC4CCN(C(=O)[C@H]5CC[C@H](Nc6ncc(F)c(-c7cccc(N8CCOCC8)c7)n6)CC5)CC4)CC3)c(F)c2)C(=O)N1 (stereo partly drawn) [Compound 672, trans-3-((3-fluoro-4-(1-((1-(4-((5-fluoro-4-(3-morpholinophenyl)pyrimidin-2-yl)amino)cyclohexane-1-carbonyl)piperidin-4-yl)methyl)piperidin-4-yl)phenyl)amino)piperidine-2,6-dione]
3 | < 500 | O=C1CCC(Nc2ccc(N3CCN([C@H]4CC[C@H](C(=O)N[C@H]5CC[C@H](Nc6ncc(F)c(-c7cccc(N8CCCCC8)c7)n6)CC5)CC4)CC3)c(F)c2)C(=O)N1 (stereo partly drawn) [Compound 541, trans-4-(4-(4-((2,6-dioxopiperidin-3-yl)amino)-2-fluorophenyl)piperazin-1-yl)-N-(trans-4-((5-fluoro-4-(3-(piperidin-1-yl)phenyl)pyrimidin-2-yl)amino)cyclohexyl)cyclohexane-1-carboxamide]
4 | < 500 | O=C1CCC(Nc2ccc(N3CCC(N4CCC(NC(=O)[C@H]5CC[C@H](Nc6ncc(F)c(-c7cccc(N8CCCOC8=O)c7)n6)CC5)CC4)C(F)(F)C3)c(F)c2)C(=O)N1 (stereo partly drawn) [Compound 495, trans-N-(1′-(4-((2,6-dioxopiperidin-3-yl)amino)-2-fluorophenyl)-3′,3′-difluoro-[1,4′-bipiperidin]-4-yl)-4-((5-fluoro-4-(3-(2-oxo-1,3-oxazinan-3-yl)phenyl)pyrimidin-2-yl)amino)cyclohexane-1-carboxamide]
5 | < 500 | O=C1CCC(Nc2ccc(C3CCN(CCC4CCN(C(=O)O[C@H]5CC[C@H](Nc6ncc(F)c(-c7cccc(-c8ccccc8)c7)n6)CC5)CC4)CC3)c(F)c2)C(=O)N1 (stereo partly drawn) [Compound 469, trans-4-((4-([1,1′-biphenyl]-3-yl)-5-fluoropyrimidin-2-yl)amino)cyclohexyl 4-(2-(4-(4-((2,6-dioxopiperidin-3-yl)amino)-2-fluorophenyl)piperidin-1-yl)ethyl)piperidine-1-carboxylate]
6 | < 500 | O=C1CC[C@@H](Nc2ccc(C3CCN([C@H]4CC[C@H](NC(=O)[C@H]5CC[C@H](Nc6ncc(F)c(-c7cccc(N8CCCOC8=O)n7)n6)CC5)CC4)CC3)c(F)c2)C(=O)N1 [Compound 519, (trans)-N-((trans)-4-(4-(4-((2,6-dioxopiperidin-3-yl)amino)-2-fluorophenyl)piperidin-1-yl)cyclohexyl)-4-((5-fluoro-4-(6-(2-oxo-1,3-oxazinan-3-yl)pyridin-2-yl)pyrimidin-2-yl)amino)cyclohexane-1-carboxamide]
7 | < 500 | O=C1CCC(Nc2ccc(C3CCN([C@H]4CC[C@H](NC(=O)[C@H]5CC[C@H](Nc6ncc(F)c(-c7cccc(N8CCCCC8=O)n7)n6)CC5)CC4)CC3)c(F)c2)C(=O)N1 (stereo partly drawn) [Compound 546, trans-N-(trans-4-(4-(4-((2,6-dioxopiperidin-3-yl)amino)-2-fluorophenyl)piperidin-1-yl)cyclohexyl)-4-((5-fluoro-4-(6-(2-oxopiperidin-1-yl)pyridin-2-yl)pyrimidin-2-yl)amino)cyclohexane-1-carboxamide]
8 | < 500 | O=C1CC[C@H](Nc2ccc(N3CCN([C@H]4CC[C@H](C(=O)N[C@H]5CC[C@H](Nc6ncc(F)c(-c7cccc(-n8ccccc8=O)c7)n6)CC5)CC4)CC3)c(F)c2)C(=O)N1 (single isomer, unassigned) [Compound 603]

Continued, compound first:

Row | SMILES | DC50 [nM]
9 | O=C1CC[C@H](Nc2ccc(C3CCN(CC4(O)CCN(C(=O)[C@H]5CC[C@H](Nc6ncc(F)c(-c7cccc(-n8ccccc8=O)c7)n6)CC5)CC4)CC3)c(F)c2)C(=O)N1 (single isomer, unassigned) [Compound 443] | < 500
10 | O=C1CCC(Nc2ccc(N3CCN([C@H]4CC[C@H](NC(=O)[C@H]5CC[C@H](Nc6ncc(F)c(-c7cccc(-n8ccccc8=O)c7)n6)CC5)CC4)CC3)c(F)c2)C(=O)N1 (stereo partly drawn) [Compound 381, trans-(1r,4R)—N-((1r,4R)-4-(4-(4-((2,6-dioxopiperidin-3-yl)amino)-2-fluorophenyl)piperazin-1-yl)cyclohexyl)-4-((5-fluoro-4-(3-(2-oxopyridin-1(2H)-yl)phenyl)pyrimidin-2-yl)amino)cyclohexane-1-carboxamide] | < 500
11 | O=C1CC[C@H](Nc2ccc(C3CCN(CC4CCN(C(=O)[C@H]5CC[C@H](Nc6ncc(F)c(-c7cccc(-n8ccccc8=O)c7)n6)CC5)CC4)CC3)c(F)c2)C(=O)N1 (single isomer, unassigned) [Compound 456] | < 500
12 | O=C1CCC(Nc2ccc(C3CCN([C@H]4CC[C@H](NC(=O)[C@H]5CC[C@H](Nc6ncc(F)c(-c7cccc(-n8ccccc8=O)c7)n6)CC5)CC4)CC3)c(F)c2)C(=O)N1 (stereo partly drawn) [Compound 401, trans-(1r,4R)—N-((1r,4R)-4-(4-(4-((2,6-dioxopiperidin-3-yl)amino)-2-fluorophenyl)piperidin-1-yl)cyclohexyl)-4-((5-fluoro-4-(3-(2-oxopyridin-1(2H)-yl)phenyl)pyrimidin-2-yl)amino)cyclohexane-1-carboxamide] | < 500
13 | O=C1CC[C@H](Nc2ccc(C3CCN([C@H]4CC[C@H](NC(=O)[C@H]5CC[C@H](Nc6ncc(F)c(-c7cccc(-n8ccccc8=O)c7)n6)CC5)CC4)CC3)c(F)c2)C(=O)N1 (single isomer, unassigned) [Compound 434] | < 500

Same assay, conditions: 24 hours incubation, MOLT-4, top concentration 10 micromolar; read-out: HiBIT-degradation MOLT4 PIP4k2C 24 hours DC50

Row | DC50 [nM] | SMILES
14 | 1000 to 5000 | Cn1nc(C2CCC(=O)NC2=O)c2ccc(C3CCN(C[C@H]4CC[C@H](NC(=O)[C@H]5CCC[C@@H](Nc6ncc(F)c(-c7cccc(-n8ccccc8=O)c7)n6)C5)CC4)CC3)cc21 (relative stereo) [Compound 307, cis-trans-N-(4-((4-(3-(2,6-dioxopiperidin-3-yl)-1-methyl-1H-indazol-6-yl)piperidin-1-yl)methyl)cyclohexyl)-3-((5-fluoro-4-(3-(2-oxopyridin-1(2H)-yl)phenyl)pyrimidin-2-yl)amino)cyclohexane-1-carboxamide]
15 | < 500 | Cn1c(=O)n(C2CCC(=O)NC2=O)c2ccc(C3CCN(CC4CCN(CC(=O)N5CCC[C@H](Nc6ncc(Cl)c(-c7cccc(-c8ccccc8)c7)n6)C5)CC4)CC3)cc21 (stereo partly drawn) [Compound 73, 3-(5-(1-((1-(2-((S)-3-((4-([1,1′-biphenyl]-3-yl)-5-chloropyrimidin-2-yl)amino)piperidin-1-yl)-2-oxoethyl)piperidin-4-yl)methyl)piperidin-4-yl)-3-methyl-2-oxo-2,3-dihydro-1H-benzo[d]imidazol-1-yl)piperidine-2,6-dione]
16 | < 500 | O=C1CCC(N2Cc3cc(C4CCN(CCN5CCC(C(=O)N6CCC[C@H](Nc7ncc(Cl)c(-c8cccc(-c9ccccc9)c8)n7)C6)CC5)CC4)ccc3C2=O)C(=O)N1 (stereo partly shown) [Compound 78]
17 | < 500 | O=C1CCC(n2c(=O)oc3cc(C4CCN(CC(=O)N5CCC(O)(C(=O)N6CCC(Nc7ncc(F)c(-c8cccc(-n9ccccc9=O)c8)n7)CC6)CC5)CC4)ccc32)C(=O)N1 (stereo not shown) [Compound 331, 3-(6-(1-(2-(4-(4-((5-fluoro-4-(3-(2-oxopyridin-1(2H)-yl)phenyl)pyrimidin-2-yl)amino)piperidine-1-carbonyl)-4-hydroxypiperidin-1-yl)-2-oxoethyl)piperidin-4-yl)-2-oxobenzo[d]oxazol-3 (2H)-yl)piperidine-2,6-dione]
18 | < 500 | O=C1CCC(Nc2ccc(C3CCN(CCC4CCN(C(=O)[C@@H]5CCC[C@H](Nc6ncc(F)c(-c7cccc(-n8ccccc8=O)c7)n6)C5)CC4)CC3(F)F)c(F)c2)C(=O)N1 (stereo partly drawn) [Compound 310, 3-[4-[3,3-difluoro-1-[2-[1-[(1R,3S)-3-[[5-fluoro-4-[3-(2-oxo-1-pyridyl)phenyl]pyrimidin-2-yl]amino]cyclohexanecarbonyl]-4-piperidyl]ethyl]-4-piperidyl]-3-fluoro-anilino]piperidine-2,6-dione]
19 | < 500 | Cn1c(=O)n(C2CCC(=O)NC2=O)c2ccc(C3CCN(CC4CCN(CC(=O)N[C@H]5CC[C@H](Nc6ncc(Cl)c(-c7cccc(-c8ccc(F)cc8)c7)n6)CC5)CC4)CC3)cc21 (stereo partly drawn) [Compound 276, trans-N-(4-((5-chloro-4-(4′-fluoro-[1,1′-biphenyl]-3-yl)pyrimidin-2-yl)amino)cyclohexyl)-2-(4-((4-(1-(2,6-dioxopiperidin-3-yl)-3-methyl-2-oxo-2,3-dihydro-1H-benzo[d]imidazol-5-yl)piperidin-1-yl)methyl)piperidin-1-yl)acetamide]
